From patent US20190338284A1, “COMPLEX FOR DRUG DELIVERY AND STABILIZATION AND PREPARATION METHOD THEREOF” (INTEROLIGO CORPORATION, priority 2016, published 2019)
“Also recorded” adds a separate entry of the source.

Legend:
Type in all cases: cell-based, human
[1] = system: BT-474 and MCF-7 breast cancer cell lines; test: WST-1 assay of ERBB2 aptamer-siRNA conjugate on breast cancer cell lines
Protocol: In addition, WST-1 assay for the breast cancer cell lines, i.e., BT-474 and MCF-7, was performed. Cell inhibition efficacy validation of ERBB2 aptamer to the breast cancer cell lines was performed in vitro through WST-1 assay. After treating the breast cancer cell lines with a control ERBB2 aptamer without activity, as well as ERBB2 aptamer-siRNA conjugate wherein an effective anticancer agent having excellent anticancer efficacy, that is, siRNA is bound to ERBB2 target aptamer having a cancer cell targeting function, respectively, WST-1 assay was performed.

[2] = system: BT-474 and MCF-7 breast cancer cell lines; test: WST-1 assay of atelocollagen-[ERBB2 aptamer-siRNA conjugate] complex on breast cancer cell lines
Protocol: Cell inhibition efficacy validation of atelcollagen-[ERBB2 aptamer-siRNA conjugate] complex to breast cancer cell lines, i.e., BT-474 and MCF-7, was performed in vitro through WST-1 assay. After treating the breast cancer cell lines with naked ERBB2, atelocollagen-[control aptamer-siRNA conjugate] complex without activity, as well as atelocollagen-[ERBB2 aptamer-siRNA conjugate] complex wherein an effective anticancer agent having excellent anticancer efficacy, that is, siRNA is bound to ERBB2 target aptamer having a cancer cell targeting function, respectively, WST-1 assay was performed.

[3] = system: BxPC3, Miapaca-2, Panc-1 and capan-1 pancreatic cancer cell lines; test: WST-1 assay of aptamer-drug conjugate on pancreatic cancer cell lines; conditions: WST-1, 0.1 to 100 μM, 72 hours; listed as AS1411 aptamer
Protocol: WST-1 assay for pancreatic cancer cell lines, i.e., BxPC3, Miapaca-2, Panc-1 and capan-1 was performed. Cell inhibition efficacy validation of AS1411-Gem conjugate to the pancreatic cancer cell lines was performed in vitro through WST-1 assay. First, a control aptamer CRO in a naked form without being combined with an anticancer agent, AS1411 having a cancer cell-targeting function, as well as CRO-Gem conjugate and AS1411-Gem conjugate which are combined with an anticancer agent effective to pancreatic cancer, i.e., gemcitabine, respectively, were prepared (Table 2).
Experimental procedure: Each of the pancreatic cancer cell lines, that is, B×PC3, Miapaca-2, Panc-1 and capan-1 (ATCC, RPMI+10% FBS), was seeded on a 96-well plate in a cell number of 1 to 2×10^4 cells/well, which was defined by a cell test method to determine an appropriate cell concentration, followed by growing for 1 day. The aptamer and aptamer-drug conjugate were dissolved in PBS, respectively, and were immediately treated in each well at concentrations from 0.1 μM up to 100 μM. The treated cells were incubated in a 5% CO2 incubator for 72 hours, treated with 10 μl of a reagent solution for WST-1 assay (WST-1, Roche), respectively, followed by measuring the absorbance at 440 nm using an ELISA reader (FIG. 13).

“ERBB2 aptamer-siRNA conjugate (chain 1 AGCUGUCACAGAGGGGCUACUU; chain 2 GUAGCCCCUCUGUGACAGCUU; siRNA conjugated to ERBB2 aptamer, further chemistry not given here)” was tested, and the “cell viability and proliferation, comparison of efficacy” value (“cell viability and proliferation” below) [1] was “much better efficacy than the ERBB2 aptamer” and the “cell viability and proliferation” value [2] was “much better efficacy than the control group”.
With “TTTGGTGGTGGTGGTTGTGGTGGTGGTGG (SEQ ID NO: 3) [AS1411]” the “cell viability and proliferation” value [3] was “much better efficacy than CRO; also recorded: more excellent efficacy than the case of treatment using the original anticancer agent, that is, gemcitabine alone”.
